Source: patent US20250188110A1, “SPECIFIC SMALL MOLECULE INHIBITORS THAT BLOCK KMT9 METHYLTRANSFERASE ACTIVITY AND FUNCTION” (ALBERT-LUDWIGS-UNIVERSITÄT FREIBURG, priority 2021, published 2025)
Read-outs that look alike come from different tables or passages of the source.

Columns and labels:
KMT9 [1] = molecular target: T1, KMT9 (Homo sapiens, UniProt Q9Y5N5); experiment: Microscale thermophoresis (MST) KMT9 binding
T1 sequence (Q9Y5N5 1-214): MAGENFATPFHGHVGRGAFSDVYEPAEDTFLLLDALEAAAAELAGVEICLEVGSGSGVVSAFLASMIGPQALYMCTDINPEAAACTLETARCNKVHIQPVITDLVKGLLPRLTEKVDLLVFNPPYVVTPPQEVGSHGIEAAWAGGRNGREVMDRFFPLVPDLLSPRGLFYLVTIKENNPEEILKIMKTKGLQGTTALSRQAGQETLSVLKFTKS
T1 sequence (Q9UI30 1-120 isoform Q9UI30-2 partner): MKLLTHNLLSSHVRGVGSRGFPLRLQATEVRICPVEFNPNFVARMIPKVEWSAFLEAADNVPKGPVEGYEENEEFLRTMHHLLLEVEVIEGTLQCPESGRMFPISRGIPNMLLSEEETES
Outline: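 Kd from microscale thermophoresis: compound series against 20 nM His-KMT9 labelled via RED-Tris-NTA, buffer 25 mM HEPES (pH 7.5)/100 mM NaCl/1 mM DTT/0.05% Tween, 40% MST power, 100% LED. Reported as classes: A ≤10 nM, B >10–100 nM, C >100–1000 nM, D >1000 nM.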

KMT9 [2] = molecular target: T1, KMT9; experiment: KMT9 thermal shift assay (SyproOrange); type: binding
Outline: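 ΔTm versus DMSO-only control is reported in bins (>20 K, 15–20 K, 10–15 K, ≤10 K), using Tm from Boltzmann sigmoidal fits of SyproOrange melt curves. KMT9 with compound in pH 8.5 BTP buffer containing MgCl2 and DTT was preincubated at 25° C, then ramped 1° C per 15 s up to 95° C.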

KMT9 [3] = molecular target: T1, KMT9; experiment: KMT9 methyltransferase inhibition assay, MTaseGlo luminescence (from entry 155); type: biochemical; details: 100 nM KMT9, 5 μM ETF1, 1 μM SAM
Method: For the compounds from entry 155 on in Table 1, the following procedure was used to determine IC50 values: The assay was carried out in white, opaque 384-well OptiPlates (PerkinElmer). For IC50 determination, a 2.5x substrate mix (final assay concentrations: 5 μM ETF1, 1 μM SAM and 1x MTaseGlo Reagent), a 2.5x KMT9 solution (final assay concentration 100 nM) and a 5x inhibitor stock 1:1 dilution series (concentration according to the desired range; dilution series was prepared in assay buffer containing 10% DMSO to obtain a final DMSO concentration of 2% in the assay) were prepared. 2 μL of 5x inhibitor stock and 4 μL of 2.5x KMT9 were pipetted, the plate was spun down at 700 rpm for 1 min using a Hettich UNIVERSAL 320 centrifuge and incubated at room temperature (around 25° C.) for 15 min. The reaction was initiated by adding 4 μL of 2.5x substrate mix, the plate was spun down as described before and incubated at 30° C. for 2 h. Afterwards, 10 μL of 2× MTaseGlo Detection solution was added, the plate was centrifuged as described above and incubated for 60 min at room temperature. Luminescence was measured using a PerkinElmer EnVision 2102 Multilabel Reader. Calculation of inhibition and data fitting was carried out as for entries 1-154. described above.
For the results of the methyltransferase inhibition assay shown as “Inhibition” in Table 1, “I” represents an IC50 less than 0.1 μM, “II” represents an IC50 equal or higher than 0.1 μM and less than 1 μM, “III” represents an IC50 equal or higher than 1 µM and less than 10 µM and “IV” represents an IC50 equal or higher than 10 µM

[4] = microscale thermophoresis, His-tag labelled KMT9 (20 nM), read-out: MST
[5] = ΔTm, 500 µM compound, 2 μM KMT9, 5X SO, read-out: Thermal shift
[6] = from entry 155: MTaseGlo assay, read-out: Inhibition
[7] = His-tag labelled KMT9 20 nM, Kd class, read-out: MST
[8] = ΔTm class, 500 uM compound, 2 μM KMT9, read-out: Thermal shift
[9] = IC50 class, MTaseGlo procedure (entries from 155 on), read-out: Inhibition
[10] = His-tag labelled KMT9 20 nM, read-out: MST (Kd)
[11] = 500 µM compound, 2 μM KMT9, read-out: Thermal shift (ΔTm)
[12] = MTaseGlo procedure (entries from 155), read-out: Inhibition (IC50)

Row | SMILES | Kd (KMT9 [1]; [7]) [µM] | ΔTm at 500 µM (KMT9 [2]; [8]) [°C] | IC50 (KMT9 [3]; [9]) [µM] | Kd (KMT9 [1]; [10]) [µM] | ΔTm at 500 µM (KMT9 [2]; [11]) [°C] | IC50 (KMT9 [3]; [12]) [µM] | other results
1 | CN1CCC([C@H]2C[C@@H](n3cc(-c4ccn(Cc5ccccc5)n4)c4c(N)nc(Cl)nc43)[C@H](O)[C@@H]2O)CC1 [Compound 502, (1R,2S,3R,5R)-3-(4-amino-5-(1-benzyl-1H-pyrazol-3-yl)-2-chloro-7H-pyrrolo[2,3-d]pyrimidin-7-yl)-5-(1-methylpiperidin-4-yl)cyclopentane-1,2-diol] | – | – | – | – | – | – | Kd (KMT9 [1]; [4]): ≤ 0.01 µM; ΔTm at 500 µM (KMT9 [2]; [5]): > 20 °C; IC50 (KMT9 [3]; [6]): 0.1 to 1 µM
2 | Nc1ncnc2c1c(-c1nc(Cc3ccccc3)cs1)cn2[C@@H]1C[C@H](C2=CCCNC2)[C@@H](O)[C@H]1O [Compound 503, (1R,2S,3R,5R)-3-(4-amino-5-(4-benzylthiazol-2-yl)-7H-pyrrolo[2,3-d]pyrimidin-7-yl)-5-(1,2,5,6-tetrahydropyridin-3-yl)cyclopentane-1,2-diol] | – | – | – | – | – | – | Kd (KMT9 [1]; [4]): 0.1 to 1 µM; ΔTm at 500 µM (KMT9 [2]; [5]): 15 to 20 °C; IC50 (KMT9 [3]; [6]): 1 to 10 µM
3 | C=CCN1CCC([C@H]2C[C@@H](n3cc(-c4nc(Cc5ccccc5)cs4)c4c(N)nc(Cl)nc43)[C@H](O)[C@@H]2O)CC1 [Compound 509, (1R,2S,3R,5R)-3-[4-amino-5-(4-benzyl-1,3-thiazol-2-yl)-2-chloropyrrolo[2,3-d]pyrimidin-7-yl]-5-[1-(prop-2-en-1-yl)piperidin-4-yl]cyclopentane-1,2-diol] | – | – | – | ≤ 0.01 | 15 to 20 | 1 to 10 | –
4 | CN1CCCC([C@H]2C[C@@H](n3cc(-c4nc(Cc5ccccc5)cs4)c4cnc(Cl)nc43)[C@H](O)[C@@H]2O)C1 (stereo partly drawn) [Compound 515, (1R,2S,3R)-3-[5-(4-benzyl-1,3-thiazol-2-yl)-2-chloropyrrolo[2,3-d]pyrimidin-7-yl]-5-(1-methylpiperidin-3-yl)cyclopentane-1,2-diol] | 0.1 to 1 | 15 to 20 | 1 to 10 | – | – | – | –
5 | O[C@@H]1[C@H](O)[C@@H](C2CCCN(CC(F)(F)F)C2)C[C@H]1n1cc(-c2nc(Cc3ccccc3)cs2)c2cnc(Cl)nc21 (stereo partly drawn) [Compound 517, (1R,2S,3R,5R)-3-(5-(4-benzylthiazol-2-yl)-2-chloro-7H-pyrrolo[2,3-d]pyrimidin-7-yl)-5-(1-(2,2,2-trifluoroethyl)-313-piperidin-3-yl)cyclopentane-1,2-diol] | > 1 | ≤ 10 | > 10 | – | – | – | –
6 | Nc1nc(Cl)nc2c1c(-c1ccn(S(=O)(=O)c3ccccc3)n1)cn2[C@@H]1C[C@H](C2CCN(CCc3ccccc3)CC2)[C@@H](O)[C@H]1O [Compound 519, (1R,2S,3R,5R)-3-{4-amino-5-[1-(benzenesulfonyl)pyrazol-3-yl]-2-chloropyrrolo[2,3-d]pyrimidin-7-yl}-5-[1-(2-phenylethyl)piperidin-4-yl]cyclopentane-1,2-diol] | – | – | – | ≤ 0.01 | > 20 | 0.1 to 1 | –
7 | Nc1nc(Cl)nc2c1c(-c1nc(Cc3ccccc3)cs1)cn2[C@@H]1C[C@H](C2CCN(C[C@H]3CCOC3)CC2)[C@@H](O)[C@H]1O [Compound 521R, (1R,2S,3R,5R)-3-(4-amino-5-(4-benzylthiazol-2-yl)-2-chloro-7H-pyrrolo[2,3-d]pyrimidin-7-yl)-5-(1-(((R)-tetrahydrofuran-3-yl)methyl)piperidin-4-yl)cyclopentane-1,2-diol] | – | – | – | 0.01 to 0.1 | 15 to 20 | 1 to 10 | –

Second part, led by results:

Row | Kd (KMT9 [1]; [7]) [µM] | ΔTm at 500 µM (KMT9 [2]; [8]) [°C] | IC50 (KMT9 [3]; [9]) [µM] | Kd (KMT9 [1]; [10]) [µM] | ΔTm at 500 µM (KMT9 [2]; [11]) [°C] | IC50 (KMT9 [3]; [12]) [µM] | SMILES | other results
8 | ≤ 0.01 | > 20 | 0.1 to 1 | – | – | – | CCN1CCC([C@H]2C[C@@H](n3cc(-c4nc(Cc5ccccc5)cs4)c4c(N)nc(Cl)nc43)[C@H](O)[C@@H]2O)CC1 [Compound 504, (1R,2S,3R,5R)-3-[4-amino-5-(4-benzyl-1,3-thiazol-2-yl)-2-chloropyrrolo[2,3-d]pyrimidin-7-yl]-5-(1-ethylpiperidin-4-yl)cyclopentane-1,2-diol] | –
9 | ≤ 0.01 | > 20 | 0.1 to 1 | – | – | – | CN1CCC([C@H]2C[C@@H](n3cc(-c4nc(Cc5ccccc5)cs4)c4c(N)nc(Cl)nc43)[C@H](O)[C@@H]2O)CC1 [Compound 505, (1R,2S,3R,5R)-3-(4-amino-5-(4-benzylthiazol-2-yl)-2-chloro-7H-pyrrolo[2,3-d]pyrimidin-7-yl)-5-(1-methylpiperidin-4-yl)cyclopentane-1,2-diol] | –
10 | ≤ 0.01 | > 20 | 0.1 to 1 | – | – | – | CC(C)N1CCC([C@H]2C[C@@H](n3cc(-c4nc(Cc5ccccc5)cs4)c4c(N)nc(Cl)nc43)[C@H](O)[C@@H]2O)CC1 [Compound 506, (1R,2S,3R,5R)-3-[4-amino-5-(4-benzyl-1,3-thiazol-2-yl)-2-chloropyrrolo[2,3-d]pyrimidin-7-yl]-5-(1-isopropylpiperidin-4-yl)cyclopentane-1,2-diol] | –
11 | ≤ 0.01 | > 20 | 0.1 to 1 | – | – | – | Nc1nc(Cl)nc2c1c(-c1nc(Cc3ccccc3)cs1)cn2[C@@H]1C[C@H](C2CCN(CC3CC3)CC2)[C@@H](O)[C@H]1O [Compound 507, (1R,2S,3R,5R)-3-[4-amino-5-(4-benzyl-1,3-thiazol-2-yl)-2-chloropyrrolo[2,3-d]pyrimidin-7-yl]-5-[1-(cyclopropylmethyl)piperidin-4-yl]cyclopentane-1,2-diol] | –
12 | – | – | – | ≤ 0.01 | 15 to 20 | 0.1 to 1 | Nc1nc(Cl)nc2c1c(-c1nc(Cc3ccccc3)cs1)cn2[C@@H]1C[C@H](C2CCN(CCF)CC2)[C@@H](O)[C@H]1O [Compound 508, (1R,2S,3R)-3-[4-amino-5-(4-benzyl-1,3-thiazol-2-yl)-2-chloropyrrolo[2,3-d]pyrimidin-7-yl]-5-[1-(2-fluoroethyl)piperidin-4-yl]cyclopentane-1,2-diol] | –
13 | – | – | – | 0.01 to 0.1 | 15 to 20 | 0.1 to 1 | CC(=O)CN1CCC([C@H]2C[C@@H](n3cc(-c4nc(Cc5ccccc5)cs4)c4c(N)nc(Cl)nc43)[C@H](O)[C@@H]2O)CC1 [Compound 510, 1-{4-[(1R,2R,3S,4R)-4-[4-amino-5-(4-benzyl-1,3-thiazol-2-yl)-2-chloropyrrolo[2,3-d]pyrimidin-7-yl]-2,3-dihydroxycyclopentyl]piperidin-1-yl}propan-2-one] | –
14 | – | – | – | 0.1 to 1 | 10 to 15 | 1 to 10 | Nc1nc(Cl)nc2c1c(-c1nc(Cc3ccccc3)cs1)cn2[C@@H]1C[C@H](C2CCN(CC(F)F)CC2)[C@@H](O)[C@H]1O [Compound 511, (1R,2S,3R,5R)-3-[4-amino-5-(4-benzyl-1,3-thiazol-2-yl)-2-chloropyrrolo[2,3-d]pyrimidin-7-yl]-5-[1-(2,2-difluoroethyl)piperidin-4-yl]cyclopentane-1,2-diol] | –
15 | – | – | – | ≤ 0.01 | 15 to 20 | 0.1 to 1 | Nc1nc(Cl)nc2c1c(-c1nccs1)cn2[C@@H]1C[C@H](C2CCN(CCc3ccncc3)CC2)[C@@H](O)[C@H]1O [Compound 514, (1R,2S,3R,5R)-3-[4-amino-2-chloro-5-(1,3-thiazol-2-yl)pyrrolo[2,3-d]pyrimidin-7-yl]-5-{1-[2-(pyridin-4-yl)ethyl]piperidin-4-yl}cyclopentane-1,2-diol] | –
16 | > 1 | ≤ 10 | > 10 | – | – | – | O[C@@H]1[C@H](O)[C@@H](C2CCCN(CCc3ccccc3)C2)C[C@H]1n1cc(-c2nc(Cc3ccccc3)cs2)c2cnc(Cl)nc21 (stereo partly drawn) [Compound 518, (1R,2S,3R,5R)-3-(5-(4-benzylthiazol-2-yl)-2-chloro-7H-pyrrolo[2,3-d]pyrimidin-7-yl)-5-(1-phenethylpiperidin-3-yl)cyclopentane-1,2-diol] | –
